14 compounds from patent publication US20150087627A1, “COMBINATION OF KINASE INHIBITORS AND USES THEREOF” (Intellikine LLC, priority 2011, published 2015) can be followed below.

Experiment [1] deals with T1, PI3K β (p110β/p85α) (Homo sapiens, UniProt P42338).
T1 construct: purchased Upstate / Millipore Corporation
In words: PI 3-Kinase (human) HTRF assay, PI3K β. The class given is biochemical. In general terms: Time-resolved FRET reads energy transfer from a long-lived donor to a nearby acceptor.

Experiment [2] addresses T2, mTOR (Homo sapiens, UniProt P42345).
T2 construct: purchased Invitrogen
In words: mTOR kinase inhibition assay (radiometric or LanthaScreen TR-FRET). The format is biochemical. To be noted: read-out: mTORC IC50.

For experiment [3], the target named is T3, PI3K δ (Homo sapiens, UniProt O00329).
T3 construct: purchased Upstate / Millipore Corporation
In words: PI 3-Kinase (human) HTRF assay, PI3K δ. The class given is biochemical. The note with it: read-out: PI3K δ IC50.

Experiment [4] relates to T47D. In words: T47D proliferation. The format is cell-based. To be noted: Homo sapiens; T47D cell line.
Experiment [5] has as its target T4, PI3K α (p110α/p85α) (Homo sapiens, UniProt P42336).
T4 construct: purchased Upstate / Millipore Corporation
In words: PI 3-Kinase (human) HTRF assay, PI3K α. The class given is biochemical.

Experiment [6] concerns PC3. The experiment in a line: PC3 proliferation. The class given is cell-based. The note with it: Homo sapiens, PC-3; PC3 cell line (compounds before 438); read-out: PC3 proliferation (nM)*.
In experiment [7] the target is T5, PI3K γ (p110γ) (Homo sapiens, UniProt P48736).
T5 construct: purchased Upstate / Millipore Corporation
The experiment in a line: PI 3-Kinase (human) HTRF assay, PI3K γ. The class given is biochemical.

Experiment [8] relates to MDA-MB-361. In words: MDA-MB-361 proliferation. The note with it: MDA-MB-361, read-out: MDA-MB-361 proliferation (nM)*. The format is cell-based.
The mark [9] stands for this setting: Table 4 (PI3K α inhibitors), read-out: PI3K β IC50.
Setting [10] is: Table 4 (PI3K α inhibitors), read-out: PI3K α IC50.
Where [11] appears, read: Table 4 (PI3K α inhibitors), read-out: PI3K γ IC50.

Where two headings read alike, the source gives them in different places.

T1 sequence (P42338 whole entry): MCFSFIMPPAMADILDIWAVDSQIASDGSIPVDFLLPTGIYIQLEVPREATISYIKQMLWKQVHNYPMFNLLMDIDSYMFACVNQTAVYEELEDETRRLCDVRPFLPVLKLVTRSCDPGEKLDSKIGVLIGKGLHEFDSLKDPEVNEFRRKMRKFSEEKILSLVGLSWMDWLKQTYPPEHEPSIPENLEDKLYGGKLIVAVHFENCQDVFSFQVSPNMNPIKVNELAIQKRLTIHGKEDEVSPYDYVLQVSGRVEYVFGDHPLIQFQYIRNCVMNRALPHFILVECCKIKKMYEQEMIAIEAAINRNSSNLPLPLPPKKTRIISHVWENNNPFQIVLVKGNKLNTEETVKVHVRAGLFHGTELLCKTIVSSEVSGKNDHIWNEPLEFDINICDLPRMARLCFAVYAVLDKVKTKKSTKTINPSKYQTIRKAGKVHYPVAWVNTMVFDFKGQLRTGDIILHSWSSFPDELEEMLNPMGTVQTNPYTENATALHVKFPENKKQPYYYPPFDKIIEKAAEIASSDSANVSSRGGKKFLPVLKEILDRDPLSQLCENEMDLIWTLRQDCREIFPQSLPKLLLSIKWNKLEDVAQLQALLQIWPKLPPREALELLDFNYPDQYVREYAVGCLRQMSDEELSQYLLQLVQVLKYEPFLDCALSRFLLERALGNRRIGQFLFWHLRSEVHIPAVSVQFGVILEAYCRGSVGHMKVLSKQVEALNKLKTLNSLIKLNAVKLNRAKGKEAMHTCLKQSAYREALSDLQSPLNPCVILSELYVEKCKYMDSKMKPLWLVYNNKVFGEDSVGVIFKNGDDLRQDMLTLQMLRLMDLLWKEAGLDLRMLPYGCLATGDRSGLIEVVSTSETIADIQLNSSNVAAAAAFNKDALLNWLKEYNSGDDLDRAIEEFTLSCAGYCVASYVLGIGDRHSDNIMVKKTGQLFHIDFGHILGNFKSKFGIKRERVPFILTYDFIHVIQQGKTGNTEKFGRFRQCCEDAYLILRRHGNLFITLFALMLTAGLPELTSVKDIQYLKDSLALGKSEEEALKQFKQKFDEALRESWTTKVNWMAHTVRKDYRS
T1 sequence (P27986 whole entry partner): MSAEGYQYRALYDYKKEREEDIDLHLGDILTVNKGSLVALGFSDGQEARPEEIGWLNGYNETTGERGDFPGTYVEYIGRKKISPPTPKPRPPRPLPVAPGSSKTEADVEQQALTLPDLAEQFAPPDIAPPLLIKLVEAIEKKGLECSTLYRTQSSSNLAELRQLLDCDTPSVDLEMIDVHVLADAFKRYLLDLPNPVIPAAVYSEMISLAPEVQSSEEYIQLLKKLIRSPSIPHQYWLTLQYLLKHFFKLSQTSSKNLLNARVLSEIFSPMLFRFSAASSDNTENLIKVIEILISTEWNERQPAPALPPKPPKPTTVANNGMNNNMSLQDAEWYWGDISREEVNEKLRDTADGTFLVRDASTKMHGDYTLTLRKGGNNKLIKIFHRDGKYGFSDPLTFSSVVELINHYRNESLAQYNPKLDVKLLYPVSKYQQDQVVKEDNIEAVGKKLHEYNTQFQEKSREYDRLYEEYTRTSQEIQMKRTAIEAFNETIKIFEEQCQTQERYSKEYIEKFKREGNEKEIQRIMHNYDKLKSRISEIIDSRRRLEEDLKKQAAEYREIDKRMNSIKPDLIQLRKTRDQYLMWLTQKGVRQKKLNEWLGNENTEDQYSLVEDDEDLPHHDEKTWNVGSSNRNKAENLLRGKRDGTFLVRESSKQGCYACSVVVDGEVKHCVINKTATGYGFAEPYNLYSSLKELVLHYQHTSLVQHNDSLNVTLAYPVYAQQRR
T2 sequence (P42345 1360-2549 limits assumed): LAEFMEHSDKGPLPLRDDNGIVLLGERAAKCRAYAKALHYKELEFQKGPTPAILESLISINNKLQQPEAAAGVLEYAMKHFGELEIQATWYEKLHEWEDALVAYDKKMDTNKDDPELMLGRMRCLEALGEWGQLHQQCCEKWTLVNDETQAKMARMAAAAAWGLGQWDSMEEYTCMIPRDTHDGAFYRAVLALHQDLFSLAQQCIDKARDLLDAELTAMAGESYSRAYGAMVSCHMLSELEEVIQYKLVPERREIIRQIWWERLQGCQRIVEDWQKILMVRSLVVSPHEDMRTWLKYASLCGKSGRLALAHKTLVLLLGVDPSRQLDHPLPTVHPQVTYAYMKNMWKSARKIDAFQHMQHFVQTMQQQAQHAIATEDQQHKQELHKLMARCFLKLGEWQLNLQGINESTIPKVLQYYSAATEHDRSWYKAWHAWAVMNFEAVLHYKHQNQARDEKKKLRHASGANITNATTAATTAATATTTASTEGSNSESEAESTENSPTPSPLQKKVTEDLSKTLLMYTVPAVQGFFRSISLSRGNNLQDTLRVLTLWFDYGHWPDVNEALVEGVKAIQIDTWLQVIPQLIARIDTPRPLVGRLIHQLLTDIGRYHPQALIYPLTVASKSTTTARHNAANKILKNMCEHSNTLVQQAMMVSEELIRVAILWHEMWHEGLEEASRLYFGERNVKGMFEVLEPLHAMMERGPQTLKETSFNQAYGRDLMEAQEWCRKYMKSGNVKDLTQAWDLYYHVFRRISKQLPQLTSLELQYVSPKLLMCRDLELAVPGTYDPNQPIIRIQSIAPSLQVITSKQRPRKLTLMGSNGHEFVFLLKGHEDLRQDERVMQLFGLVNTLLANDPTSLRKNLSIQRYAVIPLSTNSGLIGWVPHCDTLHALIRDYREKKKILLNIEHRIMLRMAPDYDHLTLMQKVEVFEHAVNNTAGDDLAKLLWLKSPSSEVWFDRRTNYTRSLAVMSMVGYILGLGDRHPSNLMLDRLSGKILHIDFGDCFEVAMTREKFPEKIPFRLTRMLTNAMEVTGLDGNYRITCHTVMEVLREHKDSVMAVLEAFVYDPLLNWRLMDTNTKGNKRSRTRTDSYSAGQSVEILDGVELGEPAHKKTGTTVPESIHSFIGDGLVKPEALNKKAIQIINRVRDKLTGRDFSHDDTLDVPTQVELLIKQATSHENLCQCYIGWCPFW
T4 sequence (P42336 whole entry): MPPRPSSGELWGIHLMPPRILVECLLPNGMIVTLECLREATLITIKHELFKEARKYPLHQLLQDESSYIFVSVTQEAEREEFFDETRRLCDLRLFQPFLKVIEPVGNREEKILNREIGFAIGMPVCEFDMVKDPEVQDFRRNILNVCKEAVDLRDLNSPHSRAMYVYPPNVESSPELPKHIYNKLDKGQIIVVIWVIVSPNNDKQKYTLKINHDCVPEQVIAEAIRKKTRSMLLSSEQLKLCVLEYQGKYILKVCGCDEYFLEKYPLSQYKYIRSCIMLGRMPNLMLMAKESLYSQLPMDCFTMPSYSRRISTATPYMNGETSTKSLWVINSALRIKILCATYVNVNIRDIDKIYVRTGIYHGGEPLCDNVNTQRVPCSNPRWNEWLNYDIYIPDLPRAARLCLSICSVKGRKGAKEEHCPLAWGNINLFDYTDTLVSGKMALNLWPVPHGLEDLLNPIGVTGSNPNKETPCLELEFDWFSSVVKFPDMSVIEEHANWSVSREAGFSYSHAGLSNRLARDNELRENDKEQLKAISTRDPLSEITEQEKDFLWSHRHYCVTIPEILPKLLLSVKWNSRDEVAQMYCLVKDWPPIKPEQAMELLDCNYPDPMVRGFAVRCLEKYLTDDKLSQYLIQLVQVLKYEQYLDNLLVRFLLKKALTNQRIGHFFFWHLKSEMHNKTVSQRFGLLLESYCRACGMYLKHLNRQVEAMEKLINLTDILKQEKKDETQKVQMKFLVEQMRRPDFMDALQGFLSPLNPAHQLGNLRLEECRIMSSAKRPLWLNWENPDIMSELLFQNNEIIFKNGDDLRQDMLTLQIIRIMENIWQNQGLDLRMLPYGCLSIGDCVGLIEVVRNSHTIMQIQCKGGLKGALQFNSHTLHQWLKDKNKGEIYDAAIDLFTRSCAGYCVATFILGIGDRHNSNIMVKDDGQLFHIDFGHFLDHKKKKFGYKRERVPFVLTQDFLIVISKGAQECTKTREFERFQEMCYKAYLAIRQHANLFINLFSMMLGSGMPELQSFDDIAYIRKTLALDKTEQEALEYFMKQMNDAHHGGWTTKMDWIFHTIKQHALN
T4 sequence (P27986 whole entry partner): as the sequence (P27986 whole entry partner) above

With `Nc1nc2cc(-c3ccc4ncc(C(=O)N5CCOCC5)n4c3)ccc2o1` [Compound 54], the IC50 in experiment [1] (read-out: PI3K β IC50) was less than 10000 nM; in experiment [2] it was less than 10 µM; in experiment [3] it was less than 10 µM; in experiment [4], less than 10 µM.

Take `Nc1nc2cc(-c3ccc4ncc(-c5ccncc5)n4n3)ccc2o1` [Compound 10]: the IC50 in experiment [1] (read-out: PI3K β IC50) was less than 1000 nM; in experiment [5] (read-out: PI3K α IC50), less than 0.1 µM; in experiment [6], less than 1000 nM; in experiment [2], less than 1 µM; in experiment [4] it was less than 1 µM; in experiment [7] (read-out: PI3K γ IC50), less than 100 nM.

In the case of `Nc1nc2cc(-c3ccc4ncn(-c5ccccc5)c4c3)ccc2o1` [Compound 11], the IC50 is less than 10000 nM in experiment [1] (read-out: PI3K β IC50), less than 0.1 µM in experiment [5] (read-out: PI3K α IC50), greater than 10000 nM in experiment [6] and greater than 10 µM in experiment [2].

As for `Nc1nc2cc(-c3ccc4ncc(N5CCCCC5)nc4c3)ccc2o1` [Compound 175], the IC50 was greater than 10000 nM in experiment [1] (read-out: PI3K β IC50); less than 0.1 µM in experiment [5] (read-out: PI3K α IC50); greater than 10 µM in experiment [3]; greater than 10 µM in experiment [4]; less than 10000 nM in experiment [7] (read-out: PI3K γ IC50).

In the case of `Cn1cc(-c2cnc3ccc(-c4ccc5oc(N)nc5c4)cn23)cn1` [Compound 41], the IC50 in experiment [5] (read-out: PI3K α IC50) is less than 0.1 µM; in experiment [2] it was less than 10 µM; in experiment [3], less than 1 µM; in experiment [4] it was less than 10 µM.

As to `Nc1nc2cc(-c3ccc4ncc(OC5CCOCC5)nc4c3)ccc2o1` [Compound 49], the IC50 in experiment [5] (read-out: PI3K α IC50) was less than 0.1 µM; in experiment [2], less than 10 µM; in experiment [3] it was less than 10 µM; in experiment [4], less than 10 µM; in experiment [7] (read-out: PI3K γ IC50), less than 1000 nM.

Consider `CN1CCC(Nc2ncnc3ccc(-c4ccc5oc(N)nc5c4)cc23)CC1` [Compound 35], for which the IC50 was less than 0.1 µM in experiment [5] (read-out: PI3K α IC50); less than 10 µM in experiment [2]; less than 0.1 µM in experiment [3]; less than 10 µM in experiment [4]; less than 100 nM in experiment [7] (read-out: PI3K γ IC50).

In the case of `CC(=O)Nc1nc2ccc(-c3ccc4nccc(-c5ccncc5)c4c3)cc2s1` [Compound 2], the IC50 in experiment [1] (read-out: PI3K β IC50) is greater than 10000 nM; in experiment [5] (read-out: PI3K α IC50) it was less than 1 µM; in experiment [6], less than 10000 nM; in experiment [2], greater than 10 µM; in experiment [3], greater than 10 µM; in experiment [7] (read-out: PI3K γ IC50), less than 1000 nM.

Turning to `CN1CCN(c2cnc3ccc(-c4ccc5oc(N)nc5c4)cc3n2)CC1` [Compound 65], the IC50 in experiment [1] (read-out: PI3K β IC50) is less than 100 nM; in experiment [5] (read-out: PI3K α IC50) it was less than 0.1 µM; in experiment [2], greater than 10 µM; in experiment [3] it was less than 10 µM; in experiment [4], less than 10 µM; in experiment [7] (read-out: PI3K γ IC50), less than 1000 nM.

Turning to `C[C@H]1CN(C2CN(c3cnc4ccc(-c5ccc6oc(N)nc6c5)nc4n3)C2)CCN1C` [Compound 606], the IC50 in experiment [1] (setting [9]) was less than 10000 nM; in experiment [5] (setting [10]) it was less than 0.1 µM; in experiment [2] (Table 4 (PI3K α inhibitors)), greater than 10 µM; in experiment [3] (Table 4 (PI3K α inhibitors)) it was less than 1 µM; in experiment [8] (Table 4 (PI3K α inhibitors)), less than 1000 nM; in experiment [7] (setting [11]), less than 10000 nM.

For `Cc1cn(-c2cnc3ccc(-c4ccc5oc(N)nc5c4)cc3n2)cn1` [Compound 177], the IC50 in experiment [1] (read-out: PI3K β IC50) was greater than 10000 nM; in experiment [5] (read-out: PI3K α IC50), less than 0.1 µM; in experiment [3], greater than 10 µM; in experiment [4], greater than 10 µM; in experiment [7] (read-out: PI3K γ IC50) it was less than 1000 nM.

Regarding `CN1CCN(c2ccc(-c3cnc4ccc(-c5ccc6oc(N)nc6c5)cn34)cn2)CC1` [Compound 42], the IC50 in experiment [5] (read-out: PI3K α IC50) is less than 0.1 µM; in experiment [2] it was greater than 10 µM; in experiment [3] it was less than 1 µM; in experiment [4] it was less than 10 µM; in experiment [7] (read-out: PI3K γ IC50) it was less than 1000 nM.

Turning to `Nc1nc2cc(-c3ccc4ncc(N5CCNC(=O)C5)cc4n3)ccc2o1` [Compound 580], the IC50 in experiment [1] (setting [9]) is less than 1000 nM; in experiment [5] (setting [10]), less than 0.1 µM; in experiment [3] (Table 4 (PI3K α inhibitors)), less than 10 µM; in experiment [8] (Homo sapiens, MDA-MB-361, Table 4 (PI3K α inhibitors)), less than 1000 nM; in experiment [7] (setting [11]) it was less than 100 nM.

Take `CN1CCC(N(C)c2cnc3ccc(-c4ccc5oc(N)nc5c4)cc3n2)CC1` [Compound 151]: the IC50 is less than 10000 nM in experiment [1] (PI3K β IC50 (nM)); less than 0.1 µM in experiment [5]; less than 1 µM in experiment [3]; less than 10 µM in experiment [4]; less than 10000 nM in experiment [7] (PI3K γ IC50 (nM)).
